{"source": "patent US10299999B2", "about": "“Flavour composition comprising menthol and menthane carboxamides” (Givaudan, S.A., priority 2011, dated 2019)", "assay": "Toothpaste sensory panel: flavours A-C at 1% in silica toothpaste base, scored 0-10 for cooling, tingling, freshness and overall preference", "type": "in vivo, naive volunteers", "details": "low levels replacing high levels of menthol in a toothpaste flavour", "experimental": "The Flavours were each incorporated into a standard silica toothpaste base at 1%:\nAll three toothpastes were coded and given to 37 naive volunteers. The volunteers were asked to brush the teeth for 30 seconds and score each toothpaste (0-10 scale) for cooling, tingling and freshness at each of six time points: 0 minutes, 5 minutes, 10 minutes, 20 minutes, 30 minutes and 60 minutes. At the end of the 60 minutes, they were also asked for their overall preference scores (0-10 scale)."}
{"molecule": "CC(C)[C@@H]1CC[C@@H](C)C[C@H]1C(=O)Nc1ccc(CC#N)cc1", "note": "(stereo in doubt) [Evercool 180, N-(4-cyanomethylphenyl) p-menthanecarboxamide]", "values": [{"measurement": "sensorial benefits compared with the flavour with the high levels of menthol", "value": "superior sensorial benefits"}]}
